Assay results reported in patent US20220226270A1, “VERY-LONG-CHAIN POLYUNSATURATED FATTY ACIDS, ELOVANOID HYDROXYLATED DERIVATIVES, AND METHODS OF USE” (Board of Supervisors of Louisiana State University and …, priority 2019, published 2022).

Assays:
[1] = tested on: ARPE-19 cells; test: UOS-induced apoptosis in ARPE-19 cells (Hoechst-positive pyknotic cells); assay type: cell-based, human; details: for protection against UOS: free fatty acids (FIGS. 7A and 7B); for UOS-induced apoptosis: 200 nM (FIG. 10C); for UOS-induced apoptotic cell death, concentration-dependent: 50-500 nM (FIG. 10G); for concentration of highest inhibition of UOS-induced apoptosis / concentration of lowest inhibition of UOS-induced apoptosis: tested 50-500 nM
Method: (§1) ARPE19 cells at 75-80% confluence (72 h growth in DMEM/F12+10% FBS) in 6-well plates were serum-starved for 8 h before exposure. The serum-starved cells were treated with TNF-α (Sigma-Aldrich, St. Louis, Mo.) (10 ng/ml) and H2O2 (600 μM) to induce oxidative stress and challenged with increasing concentrations (50-500 nM) of VLC-PUFA (C32:6n3 and C34:6n3) simultaneously with oxidative stress for 16 h (apoptosis) and 6 h (Western-blot) before detection of apoptosis and harvesting for protein analysis. In some experiments, DHA at a concentration of 100 nM and 15-LOX-1 inhibitor PD146176 at a concentration of 1 μM was added to treat the RPE cells under stress. Cell extracts were made and protein concentrations adjusted by Bio-Rad (Hercules, Calif.) protein reagent and used for Western blot analysis.
To assess cell death, hRPE and ARPE-19 cells were fixed with methanol for 15 mins, washed with 1× PBS then loaded with 2 μM Hoechst dissolved in a Locke's solution (Promega) and incubated for another 15 mins before imaging. Cells were then viewed by using a Zeiss LSM 510 confocal microscope under UV fluorescence. Images were recorded and cell apoptosis was assessed by using an automated unbiased method.

[2] = tested on: ARPE-19 cells under UOS; test: Western blot of pro-survival and pro-apoptotic proteins in ARPE-19 cells under UOS; assay type: cell-based, human; details: for Iduna expression (VLC-PUFA): RPE cells under UOS (FIG. 7D); for SIRT1 expression (VLC-PUFA): RPE under UOS (FIG. 7C); for Bax protein / Bcl-2 protein / Bcl-xL protein / Bid protein / Bim protein: Western blot, UOS; for Prohibitin (type-1) expression (VLC-PUFA): concentration-dependent, 100 and 250 nM (FIG. 7J); for Iduna expression (ELV): 200 nM; for Sirtuin1 (SIRT1) expression (ELV): dose-dependent, 100-200 nM
Method: as §1
Analysis of Proteins: Bcl-2 family proteins, SIRT1 and Proinhibitin (type-1), and Iduna proteins were analyze by Western blot analysis. In brief, 20-25 μg equivalents of each cell extracts were subject to electrophoresis on a 4-12% gel (Promega) at 125 V for 2 h. The proteins were transferred to nitrocellulose membrane by I-blot transfer apparatus. The membranes were subjected to treatment with primary antibodies specific for Bcl-2, Bcl-xL, Bax, Bid, Bim, SIRT1 and Prohibitin (type-1) (Santa Cruz Biotechnology) and Iduna antibody (Neuro-Mab Lab, UCLA, Los Angeles, Calif.) overnight at 4° C. and probed for 45 mins with secondary antibody, goat anti-mouse Ig:horseradish peroxidase, and horseradish peroxidase-conjugated anti-biotin antibody, and then proteins were evaluated by using an ECL kit (Amersham).

[3] = tested on: cerebral cortical mixed neuronal cells; test: Oxygen glucose deprivation (OGD) in cerebral cortical mixed neuronal cultures; assay type: cell-based, rat; details: for neuroprotection after OGD by VLC-PUFA precursor: 250 nM, added after OGD exposure; for neuroprotection compared to OGD alone (Hoechst-positive nuclei, calcein-positive cell counting or MTT): 90 mins OGD, added after 2 h of reoxygenation at 200 nM, 500 nM or 1 μM, cortical mixed or hippocampal neurons; for frequency distribution of pyknotic vs non-pyknotic nuclei (nuclear size peak) after OGD: 500 nM, DIV 12, 90 min OGD, Hoechst
From the text: Primary cultures of cortical neurons: Primary cultures of cortical and hippocampal neurons were harvested from 18-day-old embryos (E18) taken from timed-pregnant, two-month-old Sprague-Dawley (SD) rats (Charles River Lab., Wilmington, Mass.). Briefly, timed-pregnant SD rats were euthanized and embryos were collected in sterile conditions. Embryonic brains were dissected out by forceps on ice and placed in a petri dish containing ice-cold Hank's Balanced Salt Solution (HBSS) (GIBCO). Meninges were removed under a dissecting microscope and cortical tissues were chopped into small pieces with micro-spring scissors. These tissues were transferred to 15 ml tubes containing trypsin-EDTA (0.025% in HBSS) and DNase I. The tubes were incubated in 37° C. chamber for 15 mins and were agitated every 5 mins. After stopping the trypsinization with 5 ml 10% FBS, these tissues were triturated 15 times with a fire polished Pasteur pipet. Cell clumps were left to settle for 2 mins and the supernatant was transferred to a 15 ml Eppendorf tube. The supernatant was filtered through a 70 μm pore-sized filter (Corning cell strainer) and centrifuged for 5 mins at 1000 rpm. The cells were then resuspended in Neurobasal medium (GIBCO) containing 2% B27 (GIBCO) and 2% N2 (GIBCO) supplements, along with 0.5 mM glutamine, 50 U/ml penicillin/streptomycin.
Cells were counted using a Neubauer hemocytometer. 1×10^6 cells were seeded on poly-D-lysine-coated 12 well cell culture dish (CORNING) and cultured in incubator (37° C., 5% CO2). Culture medium was first replaced after 24 h, then half of the medium was replaced with fresh medium every three days. As a result, approximately, 90% purity of neurons was obtained as determined by class-III-β tubulin, GFAP and Hoechst 33258 staining. Cells were maintained in culture for about 2 weeks until they were exposed to uncompensated oxidative stress, OGD, or NMDA excitotoxicity.
Oxygen glucose deprivation (OGD), NMDA excitotoxicity or uncompensated oxidative stress (UOS) exposure: An in vitro oxygen glucose deprivation (OGD) model was established. Primary cortical neurons were cultured from SD rat embryos. On day in vitro (DIV) 12, cells were washed with phosphate-buffered saline and incubated in glucose-free Neurobasal medium (GIBCO) for 30 mins. The cells were then placed in a modular incubator chamber and incubated in an anaerobic chamber (95% N2, 5% CO2) at 37° C. for 90 mins for OGD.
After 90 mins of OGD exposure, cells were returned to the original medium (Neurobasal medium (GIBCO) containing 2% B27 (GIBCO) and 2% N2 (GIBCO) supplements, along with 0.5 mM glutamine, 50 U/ml penicillin/streptomycin) and placed in a normoxic chamber (37° C., 5% CO2) for 2 h. Then the medium was changed with medium containing either ELV-N32 or ELV-N34 [500 nM] and maintained in a normoxic chamber (37° C., 5% CO2) for 12 h, after which cells were sampled and assayed for cell viability using different methods as previously described (25-28). Cerebral cortical mixed neuronal cells or hippocampal cells in culture were exposed to either NMDA or uncompensated oxidative stress (UOS) for 12 h by addition of either NMDA (25 μM, 50 μM, or 100 μM) concentration or by the addition of TNFα (10 ng/mL) and H2O2 (50 μM, 100 μM, or 200 μM). Cell viability and neuroprotection in the presence of ELV-N32, ELV-N34, 32:6, or 34:6 were assayed after 12 h.
Hoechst staining and unbiased image analysis: Cells were washed with 1× Dulbecco's Phosphate Buffered Saline (DPBS) containing no calcium or magnesium (GIBCO) and fixed for 10 mins using ice-cold 4% paraformaldehyde (PFA) followed by 15 mins incubation in 100% methanol. Cells were washed with 1× Phosphate Buffered Saline (PBS) pH 7.4 (GIBCO) and incubated in PBS containing 20 μM Hoechst 33258 (Molecular Probes) for 20 mins. Cells were then washed 3 times with 1× PBS and stored in 1× PBS at 4° C. until they were imaged for microscopy. […]

Row | SMILES | protection against UOS [1] | Iduna expression (VLC-PUFA) [2] | SIRT1 expression (VLC-PUFA) [2] | Bax protein [2] | Bcl-2 protein [2] | Bcl-xL protein [2] | Bid protein [2] | Bim protein [2] | Prohibitin (type-1) expression (VLC-PUFA) [2] | neuroprotection after OGD by VLC-PUFA precursor [3] | neuroprotection after OGD by VLC-PUFA precursor ([3]; listed as 34:6) | neuroprotection compared to OGD alone (Hoechst-positive nuclei, calcein-positive cell counting or MTT) [3] | UOS-induced apoptosis [1] | UOS-induced apoptotic cell death, concentration-dependent [1] | concentration of highest inhibition of UOS-induced apoptosis [1] | concentration of lowest inhibition of UOS-induced apoptosis [1] | Iduna expression (ELV) [2] | relative potency in upregulating SIRT1 ([2]; UOS RPE cells) | Sirtuin1 (SIRT1) expression (ELV) [2] | frequency distribution of pyknotic vs non-pyknotic nuclei (nuclear size peak) after OGD [3]
1 | CC/C=C\C/C=C\C/C=C\C/C=C\C/C=C\C/C=C\CCCCCCCCCCCCC(=O)O [32:6n3, (14Z,17Z,20Z,23Z,26Z,29Z)-dotriaconta-14,17,20,23,26,29-hexaenoic acid] | elicit protection | upregulation | upregulation | down regulated | upregulate | upregulate | down regulated | down regulated | upregulation | provide neuroprotection |  |  |  |  |  |  |  |  |  | 
2 | CC/C=C\C/C=C\C/C=C\C/C=C\C/C=C\C/C=C\CCCCCCCCCCCCCCC(=O)O [34:6n3, (16Z,19Z,22Z,25Z,28Z,31Z)-tetratriaconta-16,19,22,25,28,31-hexaenoic acid] | elicit protection | upregulation | upregulation | down regulated | upregulate | upregulate | down regulated | down regulated | upregulation |  | elicit neuroprotection |  |  |  |  |  |  |  |  | 
3 | CC/C=C\C[C@H](O)\C=C/C=C/C=C/[C@H](O)C/C=C\C/C=C\CCCCCCCCCCCCC(=O)OC [ELV-N32-Me, methyl (14Z,17Z,20R,21E,23E,25Z,27S,29Z)-20,27-dihydroxydotriaconta-14,17,21,23,25,29-hexaenoate] |  |  |  |  |  |  |  |  |  |  |  | elicited neuroprotection |  |  |  |  |  |  |  | 
4 | CC/C=C\C[C@H](O)\C=C/C=C/C=C/[C@H](O)C/C=C\C/C=C\CCCCCCCCCCCCC(=O)[O-].[Na+] [ELV-N32-Na, sodium (14Z,17Z,20R,21E,23E,25Z,27S,29Z)-20,27-dihydroxydotriaconta-14,17,21,23,25,29-hexaenoate] |  |  |  |  | enhanced the abundance | enhanced the abundance |  |  |  |  |  | elicited neuroprotection | attenuation of apoptosis | attenuated | 500 nM | 50 nM | enhanced | more potent than ELV-N34-Na | upregulate | positive rightward shift
5 | CC/C=C\C[C@H](O)\C=C/C=C/C=C/[C@H](O)C/C=C\C/C=C\CCCCCCCCCCCCCCC(=O)OC [ELV-N34-Me, methyl (16Z,19Z,22R,23E,25E,27Z,29S,31Z)-22,29-dihydroxytetratriaconta-16,19,23,25,27,31-hexaenoate] |  |  |  |  |  |  |  |  |  |  |  | elicited neuroprotection |  | attenuated | 500 nM | 50 nM |  |  |  | positive rightward shift
6 | CC/C=C\C[C@H](O)\C=C/C=C/C=C/[C@H](O)C/C=C\C/C=C\CCCCCCCCCCCCCCC(=O)[O-].[Na+] [ELV-N34-Na, sodium (16Z,19Z,22R,23E,25E,27Z,29S,31Z)-22,29-dihydroxytetratriaconta-16,19,23,25,27,31-hexaenoate] |  |  |  |  | enhanced the abundance | enhanced the abundance |  |  |  |  |  | elicited neuroprotection | attenuation of apoptosis |  |  |  | enhanced |  | upregulate | 
